The source of these data is ChEMBL document CHEMBL1201862, “PubChem BioAssay data set” (2004).

The source made the active and inactive calls.

A short description of experiment [1]: microbe, parasite or virus in culture. The experiment is classed as functional. Conditions: Mycobacterium tuberculosis.
Another experiment has as its target T1, Protein skinhead-1 (Caenorhabditis elegans, UniProt P34707).
T1 sequence (P34707 whole entry): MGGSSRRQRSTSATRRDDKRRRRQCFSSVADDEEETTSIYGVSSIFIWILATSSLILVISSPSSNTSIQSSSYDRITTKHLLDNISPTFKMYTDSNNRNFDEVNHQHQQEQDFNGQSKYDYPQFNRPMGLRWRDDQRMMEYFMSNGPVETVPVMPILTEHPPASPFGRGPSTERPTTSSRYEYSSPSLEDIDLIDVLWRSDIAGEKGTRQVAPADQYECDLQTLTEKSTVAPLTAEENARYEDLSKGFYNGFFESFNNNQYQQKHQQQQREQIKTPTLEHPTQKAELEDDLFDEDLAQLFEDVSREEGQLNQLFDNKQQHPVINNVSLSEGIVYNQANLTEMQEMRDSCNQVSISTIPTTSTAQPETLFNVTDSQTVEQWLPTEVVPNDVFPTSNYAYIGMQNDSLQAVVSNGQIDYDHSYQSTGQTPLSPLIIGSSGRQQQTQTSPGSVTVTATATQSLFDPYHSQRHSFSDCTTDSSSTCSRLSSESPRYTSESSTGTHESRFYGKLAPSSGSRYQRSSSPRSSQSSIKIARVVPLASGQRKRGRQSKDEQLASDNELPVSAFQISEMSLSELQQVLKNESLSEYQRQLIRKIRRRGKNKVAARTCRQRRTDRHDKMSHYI
In kind it is functional.

Experiment [2] has as its target FAD-linked sulfhydryl oxidase ALR (Homo sapiens, UniProt P55789). Description: ALR-catalysed DTT oxidation blockers – biochemical, H2O2 detection, luminescence, cherry-pick, dose response (AID 493248).
The target in experiment [3] is T2, Heat shock factor protein 1 (Mus musculus, UniProt P38532).
T2 sequence (P38532 whole entry): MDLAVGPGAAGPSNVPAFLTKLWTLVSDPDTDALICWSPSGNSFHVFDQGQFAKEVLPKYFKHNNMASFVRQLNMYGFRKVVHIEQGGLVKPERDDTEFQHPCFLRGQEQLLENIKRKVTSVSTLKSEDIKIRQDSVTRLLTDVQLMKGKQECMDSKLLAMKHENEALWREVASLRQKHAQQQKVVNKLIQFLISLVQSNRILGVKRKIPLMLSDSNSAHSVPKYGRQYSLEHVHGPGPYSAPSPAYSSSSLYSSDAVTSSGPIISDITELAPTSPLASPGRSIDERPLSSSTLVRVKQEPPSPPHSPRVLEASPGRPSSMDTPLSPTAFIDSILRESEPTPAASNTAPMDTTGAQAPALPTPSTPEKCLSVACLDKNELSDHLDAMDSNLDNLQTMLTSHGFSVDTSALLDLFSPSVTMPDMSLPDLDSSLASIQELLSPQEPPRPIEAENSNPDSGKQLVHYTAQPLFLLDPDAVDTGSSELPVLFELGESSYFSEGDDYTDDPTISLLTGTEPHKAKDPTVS
The experiment is described as follows: enhancement of HSF1-driven luciferase signal – cell-based, NIH3T3, luminescence, dose retest, confirmation (AID 435004).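 Also: stress induced by proteasome inhibitor MG132 added 30 min after compound; luciferase reporter driven by HSF1 response element in NIH3T3 cells; actives raise luminescence as potentiators of the MG132 stress response.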 In kind it is functional.

Experiment [4] is described as follows: Trypanosoma cruzi growth suppression in host cells – NIH3T3 host cells, beta-gal luminescence, confirmation (AID 2044).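 Also: intracellular parasites grown in NIH/3T3 mouse fibroblasts as host cells; luminescent beta-galactosidase reporter signal from transgenic T. cruzi replicating inside host cells; inhibitors lower the luminescence signal.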 In kind it is functional, cell-based.
A short description of experiment [5]: NIH3T3 cell viability loss – ATP luminescence, mouse fibroblasts, counter-screen, dose response (AID 2010).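 Also: cells exposed to compound for about 90 hours before reading.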 In kind it is functional, cell-based.
The target of a further experiment is T3, Protein RecA (Mycobacterium tuberculosis, UniProt P9WHJ3).
T3 sequence (P9WHJ3 whole entry): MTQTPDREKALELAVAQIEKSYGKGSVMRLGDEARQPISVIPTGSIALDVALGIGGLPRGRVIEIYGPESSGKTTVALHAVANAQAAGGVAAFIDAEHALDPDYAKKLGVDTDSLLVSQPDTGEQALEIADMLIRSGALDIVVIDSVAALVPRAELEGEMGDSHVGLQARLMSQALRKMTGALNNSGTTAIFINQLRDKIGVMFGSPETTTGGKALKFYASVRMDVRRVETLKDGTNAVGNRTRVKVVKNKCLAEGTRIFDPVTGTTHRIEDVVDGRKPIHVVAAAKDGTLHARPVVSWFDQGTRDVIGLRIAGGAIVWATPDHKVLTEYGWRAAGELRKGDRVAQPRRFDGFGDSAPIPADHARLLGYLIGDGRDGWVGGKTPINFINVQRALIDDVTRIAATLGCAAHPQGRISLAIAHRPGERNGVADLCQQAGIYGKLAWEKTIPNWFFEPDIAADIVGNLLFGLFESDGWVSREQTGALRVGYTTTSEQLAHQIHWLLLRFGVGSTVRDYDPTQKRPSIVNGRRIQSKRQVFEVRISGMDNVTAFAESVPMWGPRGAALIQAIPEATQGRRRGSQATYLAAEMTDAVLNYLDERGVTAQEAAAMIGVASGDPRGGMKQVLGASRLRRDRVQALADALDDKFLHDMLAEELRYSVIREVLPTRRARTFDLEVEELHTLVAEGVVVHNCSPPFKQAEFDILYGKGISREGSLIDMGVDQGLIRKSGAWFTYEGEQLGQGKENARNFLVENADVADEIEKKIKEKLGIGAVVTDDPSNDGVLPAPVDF
The experiment is described as follows: Fluorescence Cell-Free Homogeneous Dose Retest to Identify Inhibitors of RecA-Intein Splicing Activity. [Related pubchem assays (depositor defined):AID2097, AID2223, AID489010, AID492950]. The experiment is classed as functional.

Experiment [6] deals with T4, Replicative DNA helicase DnaB (Mycobacterium tuberculosis, UniProt P9WMR3).
T4 sequence (P9WMR3 whole entry): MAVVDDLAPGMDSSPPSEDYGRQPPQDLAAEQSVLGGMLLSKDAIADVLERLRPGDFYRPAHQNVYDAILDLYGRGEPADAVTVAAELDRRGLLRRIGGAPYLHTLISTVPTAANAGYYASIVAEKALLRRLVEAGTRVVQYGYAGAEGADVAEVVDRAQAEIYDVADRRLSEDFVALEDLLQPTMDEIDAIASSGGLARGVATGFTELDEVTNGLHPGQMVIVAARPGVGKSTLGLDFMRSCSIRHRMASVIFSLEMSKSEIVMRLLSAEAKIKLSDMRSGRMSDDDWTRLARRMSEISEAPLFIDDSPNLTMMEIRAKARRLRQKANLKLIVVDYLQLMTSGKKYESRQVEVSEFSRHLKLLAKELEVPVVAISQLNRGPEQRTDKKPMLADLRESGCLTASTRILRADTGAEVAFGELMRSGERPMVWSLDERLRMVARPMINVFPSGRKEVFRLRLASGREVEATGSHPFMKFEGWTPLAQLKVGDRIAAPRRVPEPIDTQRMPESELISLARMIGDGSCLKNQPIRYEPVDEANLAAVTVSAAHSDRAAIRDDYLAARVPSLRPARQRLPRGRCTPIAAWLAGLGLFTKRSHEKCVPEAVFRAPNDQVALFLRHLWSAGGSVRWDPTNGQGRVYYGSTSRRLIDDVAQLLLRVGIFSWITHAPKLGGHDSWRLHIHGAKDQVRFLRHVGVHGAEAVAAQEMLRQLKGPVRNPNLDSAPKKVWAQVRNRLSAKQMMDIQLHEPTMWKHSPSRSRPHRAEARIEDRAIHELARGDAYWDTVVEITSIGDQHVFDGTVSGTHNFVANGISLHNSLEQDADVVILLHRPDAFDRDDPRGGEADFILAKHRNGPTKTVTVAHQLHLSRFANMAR
Description: DnaB intein splicing inhibitors, dose response, biochemical, cell-free fluorescence (AID 449749). In kind it is functional.

Sequence of FAD-linked sulfhydryl oxidase ALR (P55789 whole entry): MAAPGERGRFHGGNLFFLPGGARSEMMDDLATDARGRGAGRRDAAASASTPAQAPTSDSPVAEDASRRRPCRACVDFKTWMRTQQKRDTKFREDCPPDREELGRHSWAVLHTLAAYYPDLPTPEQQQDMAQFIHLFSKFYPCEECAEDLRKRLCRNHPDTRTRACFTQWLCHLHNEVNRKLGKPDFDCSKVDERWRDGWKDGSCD

As for `CCOC(=O)CN=C(S)n1cnc(N)n1`, the CC50 in experiment [1] was > 40 µM (active). Turning to `O=c1c2cc3c(cc2[nH]c(=S)n1Cc1ccco1)OCO3`, the IC50 at Protein skinhead-1 was > 100 µM (inactive). On the same count and under the same terms, the figure for `Cc1nc(NC(=O)C2CC3CCCC(C2)C3=O)sc1C` (stereo unspecified) is > 100 µM (inactive).

On to `CC(=O)N1CCN=C1SCc1c(F)cccc1Cl`, for which the AC50 in experiment [2] is 0.631 µM (active). Consider `Cc1cc2ncn(C(=O)c3ccc(F)cc3)c2cc1C`, for which the AC50 in experiment [2] is 5.34 µM (active). As to `O=C1/C(=C\c2ccc(C(F)(F)F)cc2)CSc2sccc21`, the IC50 on Protein skinhead-1 is 69.4 µM (inactive). In the case of `O=C(/C=C/Nc1ccccc1)c1ccccc1`, the IC50 on Protein skinhead-1 is > 100 µM (inactive). Further, the concentration giving a half-maximal response (EC50) in experiment [3] was > 260 µM (inconclusive). Take `Cc1c(NC(=O)CSc2ccc3c(c2)OCCO3)c(=O)n(-c2ccccc2)n1C`: the IC50 at Protein skinhead-1 is > 100 µM (inactive). Regarding `O=C(Nc1nc(-c2ccccc2)cs1)c1cccs1`, on Protein skinhead-1, the IC50 was 59.9 µM (inactive). On to `CN(NC1CC(=O)N(c2ccccc2)C1=O)c1ccccc1` (stereo unspecified), for which the AC50 in experiment [2] was 6.83 µM (active). Same read-out and setting: the figure for `Cc1ccc(S(=O)(=O)NN2C(=O)/C(=C/c3cccnc3)SC2=S)cc1` is 4.96 µM (active). As to `COc1ccc(CNC(C)C(=O)Nc2ccc3ccccc3c2)cc1OC` (stereo unspecified), the IC50 at Protein skinhead-1 was > 100 µM (inactive).

Regarding `O=C(c1cccc(-c2ccco2)c1)N1CCCC(N2CCN(c3ccc(F)cc3)CC2)C1` (stereo unspecified), the CC50 in experiment [1] is > 40 µM (active).

For the molecule `Fc1cccc(-c2csc(-c3ccno3)n2)c1`, the IC50 on Protein skinhead-1 is > 100 µM (inactive). In the case of `COC(=O)c1ccccc1N=Nc1c(N)n[nH]c1N`, the half-maximal activity concentration (AC50) in experiment [2] is 6.65 µM (active). As to `Clc1ccc(-c2cn3cccnc3n2)cc1Cl`, the IC50 on Protein skinhead-1 is > 100 µM (inactive). For `c1ccc(CN2CCC(=NNc3nc4ccccc4[nH]3)CC2)cc1`, the concentration at half-maximal activity (AC50) in experiment [2] was 2.31 µM (active). `Cc1cccc(-c2nc3c(c(SCC(=O)N4CCOCC4)n2)CCCC3)c1`: the IC50 at Protein skinhead-1 was > 100 µM (inactive). Regarding `O=S(=O)(Nc1ccc(N2CCCCC2)cc1)c1ccccc1F`, in experiment [2], the AC50 was 2.08 µM (active).

In the case of `COc1ccc(-c2cc(C(=O)Nc3c(C)n(C)n(-c4ccccc4)c3=O)c3ccccc3n2)c(OC)c1`, on Protein skinhead-1, the IC50 was > 100 µM (inactive). As for `Cc1ccc(N(CCC#N)C(=O)CCl)cc1C`, the EC50 in experiment [4] is 3.59 µM (active); in experiment [5] it was 4.81 µM (active); at Protein RecA, 5.7 µM (active). Further, the CC50 in experiment [1] was 1.84 µM (active). The half-maximal activity concentration (AC50) in experiment [6] was 167 µM (active). `CCCC(=O)N(CCN1CCOCC1)c1nc2c(OCC)cccc2s1`: the IC50 on Protein skinhead-1 was > 100 µM (inactive).

`CC(C)CN1C(=O)NC(NS(=O)(=O)c2ccc(N)cc2)(C(F)(F)F)C1=O` (stereo unspecified): the AC50 in experiment [2] is 0.73 µM (active). Turning to `N#CCC(=O)Nc1ccc(C(=O)Nc2cccnc2)cc1`, the AC50 in experiment [2] was 0.87 µM (active). The same measure, in the same setting: as for `Cc1[nH]c(C)c(S(=O)(=O)NCc2ccc(N(C)C)cc2)c1C(=O)N1CCCC1`, the figure is 16.1 µM (active). As for `O=C(NCc1ccncc1)c1ccc(-c2ccc(F)c(F)c2)c2ccoc12`, the IC50 on Protein skinhead-1 is 20.2 µM (active). Still for that read-out and setting: as for `Cc1ccc(NC(=O)COC(=O)C2(C)CC2(Cl)Cl)cc1S(=O)(=O)N1CCOCC1` (stereo unspecified), the figure is > 100 µM (inactive); as for `CC/C(=C\c1ccc(Cl)cc1)c1ccncc1`, 13.5 µM (active); as for `c1ccc(-c2cnc(-c3ccccc3)nn2)cc1`, 78.4 µM (inactive).

Regarding `CC1(Cc2ccc(OC(F)(F)F)cc2)C(=O)Nc2ccc(OC(F)(F)F)cc21` (stereo unspecified), the concentration for half-maximal inhibition (IC50) at Protein skinhead-1 was 34.3 µM (active). On to `Cc1ccccc1-n1c(SCC(=O)N/N=C/c2c(C)nn(-c3ccccc3)c2C)nc2ccccc2c1=O`, for which the half-maximal effective concentration (EC50) in experiment [4] was 1.6 µM (active); in experiment [5], > 60 µM (not active). Further, the CC50 in experiment [1] is > 40 µM (active).

In the case of `COc1ccc(C2C(C(=O)OC(C)C)=C(C)N=c3s/c(=C\c4cccs4)c(=O)n32)cc1` (stereo unspecified), at Protein skinhead-1, the IC50 is > 100 µM (inactive). For `COc1cc(/C=N/N2C(C)CCCC2C)cc(Br)c1O` (stereo unspecified), in experiment [2], the AC50 is 0.495 µM (active). On to `CCCCCCCCCCC[C@@H](C[C@@H]1OC(=O)[C@H]1CCCCCC)OC(=O)[C@H](CC(C)C)NC=O` [ORLISTAT], for which the CC50 in experiment [1] is 37.9 µM (active).
